Laboratory results reported in patent publication US20260041649A1, “ANTI-INFLAMMATORY AGENT” (WATANABE OYSTER LABORATORY, CO., LTD., priority 2023, published 2026).

Tested on: mouse macrophage RAW264.7 cells
Test: Cell death of subconfluent RAW264.7 cells (cell count)
Type: cell-based
Conditions: for death in RAW264.7 cells: DHMBA 1, 10, 100 or 1000 μM, subconfluent cells
Method: FIG. 4 is an explanatory diagram describing that the marine factor 3,5-dihydroxy-4-methoxy benzyl alcohol (DHMBA) stimulates cell death in mouse macrophage RAW264.7 cells. RAW264.7 cells (1×10^5 cells/ml/well in a 24-well plate) were cultured in DMEM containing 10% FBS, 1% P/S, and 1% fungizone for 3 days until they reached subconfluence. The cells were cultured for another 24 hours (FIG. 4A) or 48 hours (FIG. 4B) in the control group (1% ethanol; 0 μM DHMBA as final concentration) and in the DHMBA-treated group (0.1, 1, 10, 100, or 1000 μM). In FIG. 4C, subconfluent RAW264.7 cells were cultured for another 48 hours with a caspase-3 inhibitor (10 μM) in the control group (1% ethanol; 0 μM DHMBA as final concentration) and the DHMBA-treated group (1 or 10 μM). After the culture, the number of cells attached to the dish was counted. Data are presented as the mean±SD from a total of 8 wells in 2 plates using different cell preparations. In FIG. 4D, to measure the expression level of caspase-3 or cleaved caspase-3, […] (1×10^6 cells/10 ml medium in a 100 mm dish) were cultured for 3 days in a DMEM culture medium in the control group (1% ethanol; 0 μM DHMBA as final concentration) and the DHMBA-treated group (10 μM). After the culture, cell lysates were obtained for Western blotting assay. In FIG. 4E, band intensities are shown as fold increase over the control. Data are presented as the mean±SD of values obtained from 4 dishes using different cell preparations. *: Significant difference (p<0.001) between the control group and the DHMBA-treated group. Statistical analysis was performed using 1-way ANOVA with Tukey-Kramer post-test.
RAW264.7 cells (1×10^5/ml/well in a 24-well plate) were cultured for 3 days in a DMEM culture medium containing 10% FBS, 1% P/S, and 1% fungizone using a 24-well plate. […]
The number of viable cells was counted under a microscope (Olympus MTV-3) using a hemocytometer (Sigma-Aldrich) and a cell counter (H-102P, Line Seiki Co., Ltd., Tokyo, Japan).

COc1c(O)cc(CO)cc1O [DHMBA, 3,5-dihydroxy-4-methoxybenzyl alcohol]
death in RAW264.7 cells (24 hours): promoted
death in RAW264.7 cells (48 hours): promoted
stimulatory effect on death of RAW264.7 cells in presence of caspase-3 inhibitor (DHMBA 1 or 10 μM, caspase-3 inhibitor 10 μM, 48 hours): blocked
